# Measurements as given in PMC6773865, “Functional recruitment of dynamin requires multimeric interactions for efficient endocytosis” (Nature Communications, 2019).
# Experiments:
# [1] = test system: membrane capacitance of NIH 3T3 cells (balance between exocytosis and endocytosis); experiment: Cell capacitance in whole cell patch-clamp; type: cell-based; settings: 10th minute over 1st minute of whole cell recording; peptides 1 mM; paired t-test
# Experimental: Cells were patched with pipettes made of borosilicate glass (GC150F, Harvard Apparatus) and pulled with a vertical Narishige puller (World Precision Instruments). The solution contained (in mM): 130–140 KCH3SO3, 1 EGTA, 0.1 CaCl2, 10–20 HEPES, 4 ATP (sodium or magnesium salt), 0.4 Na-GTP (or GTPγS when indicated), 5 phosphocreatine and 3 sodium ascorbate. pH was adjusted to 7.2 using KOH and osmolarity to ~300 mOsm L^−1. Sodium ascorbate was omitted in earlier recordings but was added for better stability. Chloride ions either came from 2 mM KCl, 10 mM NaCl or 4 mM MgCl2 (when Na-ATP was used) in various trials. All salts were purchased from Sigma-Aldrich. Cells were voltage-clamped at −60 mV with an EPC10 amplifier (HEKA) with series resistance and cell capacitance estimation every 4 s in the whole cell mode. The digital triggers of the amplifier were used to drive the electrovalves for pH changes. Cell viability and dialysis efficiency were made sure of by monitoring […] throughout the recording using the Patchmaster software (HEKA): series resistance should remain below 10 MΩ and holding current should remain above −100 pA. If either of these criteria was not respected (except holding current for recordings in GTPγS, see Supplementary Fig. 3D), the recording was not considered for analysis. On a given experimental day at least one control recording (i.e. without any peptide) was performed to ensure recording quality. All these recordings were pooled in the ‘control’ condition (n = 63 on 42 experimental days). […]
# Supplementary Figure 5: Characteristics of the whole cell recordings in the different conditions of this study. A, Scheme of the equivalent electrical circuit of a cell recorded in the whole cell configuration. […]
# This is likely due to the activation of GTP dependent trimeric G proteins which activate various channels in the presence of GTPγS, thereby increasing the holding current. […] F, Ratios of Cm recorded during the 10 th minute of recording over Cm recorded during the 1st minute. […]
# [2] = target: T1, Ntr-bSUMO-amphSH3 complex (tetrameric, neutravidin) (Mus musculus, UniProt Q7TQF7); experiment: SPR, tetrameric Ntr-bSUMO-amphSH3 on immobilized peptides; type: binding, murine; settings: in the tested concentration range
# T1 construct: murine Ampiphysin1 SH3 domain residues 607–686); made in house; host or cells: E. coli BL21 (DE3) co-expressing BirA, with biotin
# T1 sequence (Q7TQF7 607-686): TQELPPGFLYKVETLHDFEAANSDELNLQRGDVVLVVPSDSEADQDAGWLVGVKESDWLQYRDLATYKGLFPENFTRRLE
# T1 sequence (P02701 25-152 partner): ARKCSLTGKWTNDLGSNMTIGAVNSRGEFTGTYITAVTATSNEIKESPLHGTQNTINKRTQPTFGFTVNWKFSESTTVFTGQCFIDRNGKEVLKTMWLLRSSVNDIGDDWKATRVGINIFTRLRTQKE
Molecule,"change of Cm, Cm(10')/Cm(1') [1]",binding of Ntr-bSUMO-amphSH3 [2]
CC(=O)N[C@@H](Cc1ccc(O)cc1)C(=O)N[C@@H](CCCCn1cc(CCC(=O)NCCCOCCOCCOCCCNC(=O)CCC(=O)NCCCOCCOCCOCCCNC(=O)CCC(=O)NCCCOCCOCCOCCCNC(=O)CCC(=O)N2CCC[C@H]2C(=O)N2CCC[C@H]2C(=O)N2CCC[C@H]2C(=O)N[C@@H](CCC(N)=O)C(=O)N[C@H](C(=O)N2CCC[C@H]2C(=O)N[C@@H](CO)C(=O)N[C@@H](CCCNC(=N)N)C(=O)N2CCC[C@H]2C(=O)N[C@@H](CC(N)=O)C(=O)N[C@@H](CCCNC(=N)N)C(=O)N[C@@H](C)C(=O)N2CCC[C@H]2C(=O)N2CCC[C@H]2C(=O)NCC(N)=O)C(C)C)nn1)C(=O)NCCCOCCOCCOCCCNC(=O)CCC(=O)NCCCOCCOCCOCCCNC(=O)CCC(=O)NCCCOCCOCCOCCCNC(=O)CCC(=O)N1CCC[C@H]1C(=O)N1CCC[C@H]1C(=O)N1CCC[C@H]1C(=O)N[C@@H](CCC(N)=O)C(=O)N[C@H](C(=O)N1CCC[C@H]1C(=O)N[C@@H](CO)C(=O)N[C@@H](CCCNC(=N)N)C(=O)N1CCC[C@H]1C(=O)N[C@@H](CC(N)=O)C(=O)N[C@@H](CCCNC(=N)N)C(=O)N[C@@H](C)C(=O)N1CCC[C@H]1C(=O)N1CCC[C@H]1C(=O)NCC(N)=O)C(C)C [dD15-N],no significant decrease in Cm,–
"Ac-YPPPQVPSRPNRAPPG-NH2 [D15, reference compound]",–,no binding was observed
